The results in this text go back to ChEMBL document CHEMBL1201862, “PubChem BioAssay data set” (2004).

Structures are written as SMILES.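 Grown in 96-well plates, cells were treated for 48 hours with each compound at five concentrations. Insufficient inhibition: endpoint recorded as highest concentration tested. Abbreviation: GI50, concentration required for 50% inhibition of growth.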 Calls of active or inactive are those of the source. Cut-off read from the data, not from the text of the source: active = GI50 up to about 1.1 µM and inactive = higher.

What all share (experiment): NCI anticancer screen, dose series, 48 h
The test system of experiment [1] is SR.
For experiment [2], the system named is LXFL 529.
Experiment [3] has as its system M19-MEL.
The subject of experiment [4] is HOP-18.
Experiment [5] concerns RXF 631.
Experiment [6] deals with MDA-MB-435.
Experiment [7] deals with 786-0.
In experiment [8] the test system is DU-145.
For experiment [9], the system named is T47D.

On to `CC(C)(C)[Si](OC1CCOC1=O)(c1ccccc1)c1ccccc1` (stereo not given), for which the GI50 in experiment [1] was > 10 µM (inactive); in experiment [2], 20.7 µM (inactive); in experiment [3], 19.2 µM (inactive); in experiment [4], 18.9 µM (inactive); in experiment [5], 22.5 µM (inactive).
For `NC(=S)N/N=C1\CC(c2ccccc2)Nc2ccccc21` (stereo not given), the GI50 in [2] is 33.8 µM (inactive); in [3] it was 39.4 µM (inactive); in [4] it was 54.6 µM (inactive).
In the case of `O=CN1CCC23CC(O)CCC2C1Cc1cc(Oc2nnnn2-c2ccccc2)cc(O)c13` (stereo not given), the GI50 in [1] is 55 µM (inactive); in experiment [6], 66.7 µM (inactive); in [7] it was > 100 µM (inactive); in experiment [8] it was > 100 µM (inactive); in experiment [9] it was 79.1 µM (inactive).
As to `CN(O)C(=O)CCCC(=O)NCC(C)(C)CNC(=O)CCCC(=O)N(C)O`, the GI50 in experiment [1], in experiment [6], in experiment [8] and in [9] was > 100 µM (inactive) each time.
Turning to `Cc1cc(O)c(C(c2cccnc2)c2c(O)cc(C)[nH]c2=O)c(=O)[nH]1`, the GI50 in [1], in experiment [6], in [7], in [8] and in experiment [9] was > 100 µM (inactive) each time.
Consider `C=CCn1c(=O)ccn(COCCO)c1=O`, for which the GI50 in experiment [1], in [6], in experiment [8] and in [9] was > 100 µM (inactive) in each case.
With `O=NN(CCCl)C(=O)N[C@H]1CC[C@H](C(=O)O)CC1`, the GI50 in experiment [3] and in experiment [4] was > 100 µM (inactive) throughout.
On to `CN(C)CCNC(=O)c1ccc(NCCCN(C)CCCNc2ccc(C(=O)NCCN(C)C)c3nc4ccccc4c(O)c23)c2c(O)c3ccccc3nc12`, for which the GI50 in experiment [1] is < 0.01 µM (active); in experiment [6], 0.0101 µM (active); in experiment [7], < 0.01 µM (active); in experiment [8], < 0.0114 µM (active); in [9], 0.171 µM (active).
As for `C=C1CC(OC)(C(O)C(=O)N[C@H]2OCO[C@H]3C2O[C@H](C[C@@H](COC)OC)C(C)(C)C3OC)O[C@H](C)[C@@H]1C` (stereo not given in full), the GI50 in experiment [3] and in [4] was < 0.00482 µM (active) throughout.
With `CCOC(=O)c1cc2c([N+](=O)[O-])c(NC(C)=O)ccc2s1`, the GI50 in experiment [6] was 76.4 µM (inactive); in [7], 62.8 µM (inactive); in experiment [8] it was 49 µM (inactive); in [9], 15 µM (inactive).
As for `COc1cccc(CC(C)N)c1` (stereo not given), the GI50 in experiment [1], in experiment [7], in experiment [2], in experiment [4] and in experiment [5] was > 100 µM (inactive) throughout.
As to `CCOP(=Nc1ccc(N(C)C)cc1)(OCC)OCC`, the GI50 in experiment [6] and in [8] was > 100 µM (inactive) in each case.
For the compound `C=CCN1C(=O)/C(=C/c2ccc(OC)cc2)NC1=S`, the GI50 is 29.3 µM (inactive) in [1]; 57.3 µM (inactive) in experiment [6]; > 100 µM (inactive) in experiment [7]; > 100 µM (inactive) in experiment [8]; 42.2 µM (inactive) in [9].
Consider `NS(=O)(=O)c1cc2c(cc1Cl)NC(C(=O)NNC(=O)c1ccncc1)=NS2(=O)=O`, for which the GI50 in [1], in [7], in [2], in experiment [3] and in experiment [4] was > 100 µM (inactive) throughout.
Regarding `CC[C@@H]1C[C@@H]2CN3CCc4c([nH]c5ccc(OC)cc45)C(COC(=O)c4ccc(OC)c(OC)c4)(C2)C13`, the GI50 in experiment [1] is 13.6 µM (inactive); in experiment [7], 25.2 µM (inactive); in experiment [2], 10.6 µM (inactive); in experiment [3], 36 µM (inactive); in experiment [4], 58.2 µM (inactive).
For `C=C1C(=O)C[C@@]23CCC[C@@]12CC(OCOC)C3` (stereo not given in full), the GI50 is 3.59 µM (inactive) in experiment [3] and 3.6 µM (inactive) in experiment [4].
For `CC(C)CC(NC(=O)OCc1ccccc1)C(=O)NCCCCC(N)C(=O)NC(CCCCNC(=O)C(CC(C)C)NC(=O)OCc1ccccc1)C(=O)NC(CCCCNC(=O)C(CC(C)C)NC(=O)OCc1ccccc1)C(=O)NC(CCCCNC(=O)C(CC(C)C)NC(=O)OCc1ccccc1)C(=O)NC(CCCCNC(=O)C(CC(C)C)NC(=O)OCc1ccccc1)C(=O)NC(CCCCNC(=O)C(CC(C)C)NC(=O)OCc1ccccc1)C(=O)O` (stereo not given), the GI50 in experiment [1], in experiment [6], in experiment [7], in [8] and in experiment [9] was > 100 µM (inactive) each time.
Regarding `O=[N+]([O-])C(/C=C(\Cl)[N+](=O)[O-])=C1Nc2ccccc2N1`, the GI50 was 29.6 µM (inactive) in [1]; 42.6 µM (inactive) in experiment [6]; 52.4 µM (inactive) in experiment [7]; > 100 µM (inactive) in [8]; 17.9 µM (inactive) in experiment [9].
In the case of `O=C1/C(=C/c2ccccc2)NC(=S)N1CN1CCOCC1`, the GI50 in experiment [1], in experiment [6], in [7] and in experiment [8] was > 100 µM (inactive) each time.
For the compound `Cc1cccc(/C=C2\CCCc3ccccc3C2=O)c1`, the GI50 was 15 µM (inactive) in [1], 17 µM (inactive) in [6], 32.1 µM (inactive) in [7] and 28.6 µM (inactive) in [8].
Turning to `COC(=O)C(=O)C(C(C)=O)C(=O)C(=O)Nc1ccc(C)cc1C` (stereo not given), the GI50 in [1], in [2] and in [3] was > 100 µM (inactive) throughout.
Consider `c1cc2nnc1SCCCSc1ccc(nn1)SCCCS2`, for which the GI50 in [1] was > 26 µM (inactive); in experiment [6] it was > 40.6 µM (inactive); in [7], 24.2 µM (inactive); in [8], > 48 µM (inactive); in [9] it was 31.3 µM (inactive).
With `COc1ccc(C2=NN(c3nsc4ccccc34)C(=O)CC2)cc1`, the GI50 in experiment [1] was 49 µM (inactive); in experiment [2], 75 µM (inactive); in [3], > 100 µM (inactive); in experiment [4], 12.6 µM (inactive).
Consider `CON(C)C(=O)C(Cc1ccccc1)NC(=O)OCc1ccccc1` (stereo not given), for which the GI50 in experiment [1], in [2] and in experiment [3] was > 100 µM (inactive) throughout.
On to `Cc1nc2cccc(F)c2c(=O)n1C1CCCCNC1=O` (stereo not given), for which the GI50 in experiment [1], in experiment [6], in [7], in [8] and in experiment [9] was > 10 µM (inactive) in each case.
As for `COc1ccc(C2CC(c3sc(Nc4ccc(C)cc4)nc3C)=NN2)cc1` (stereo not given), the GI50 was > 44.1 µM (inactive) in experiment [3] and 15.3 µM (inactive) in experiment [4].
With `NC(=O)c1csc(C2O[C@@H](COP(=O)(O)OP(=O)(O)OC[C@H]3OC(n4cnc5c(N)ncnc54)[C@H](O)[C@@H]3O)[C@H](O)[C@@H]2O)n1` (stereo not given in full), the GI50 is 57.1 µM (inactive) in experiment [7], > 100 µM (inactive) in experiment [2] and > 100 µM (inactive) in experiment [4].
On to `CCCCCCCCCCCCCCCCCC(=O)OCC(COC(=O)CCCN)OC(=O)CCCN` (stereo not given), for which the GI50 in experiment [1] was 23.6 µM (inactive); in experiment [6], 17.2 µM (inactive); in experiment [7], 17.3 µM (inactive); in experiment [8] it was 19.6 µM (inactive); in experiment [9], 17.4 µM (inactive).
In the case of `O=P(CCOc1ccccc1OCCP(=O)(c1ccccc1)c1ccc2c(c1)OCCOCCOCCOCCO2)(c1ccccc1)c1ccc2c(c1)OCCOCCOCCOCCO2` (stereo not given), the GI50 in experiment [1], in [7], in experiment [2] and in experiment [3] was > 100 µM (inactive) each time.
Regarding `c1cc(CN2CCNCCNCCNCC2)cc(CN2CCNCCNCCNCC2)c1`, the GI50 in experiment [1], in experiment [6], in experiment [7], in [8] and in [9] was > 100 µM (inactive) throughout.
